# Data: patent US11351130B2, “Prevention and reversal of inflammation induced DNA damage” (Indiana University Research and Technology Corporation, priority 2017, dated 2022)
# Legend:
# Type in all cases: cell-based, rat
# [1] = test system: neuronal cultures derived from DRG; experiment: pH2A.X immunoblotting in DRG neuronal cultures (Example 1)
# Description: (§1) Dorsal root ganglia (DRG) were dissected from all spinal levels of adult male (150-175 g) Sprague-Dawley rats (Envigo, Indianapolis, Ind.) and the cells were dissociated as previously described (Kelley et al., 2014). Briefly, the rats were euthanized by CO2 asphyxiation. DRGs were transferred into collagenase solution (1 mg/ml) and incubated for 1 hour at 37° C. The digested DRGs were then rinsed with growth medium, centrifuged and dissociated by mechanical agitation. Approximately 30,000 cells were plated into each well of 12-well culture plates. All culture dishes were precoated with poly-D-lysine and laminin. Cells were maintained in F-12 media supplemented with 10% horse serum, 2 mM glutamine, 100 μg/ml Normocin, 50 μg/ml penicillin, 50 μg/ml streptomycin, 50 μM 5-fluoro-2′-deoxyuridine, 150 μM uridine, and 30 ng/ml of NGF in 3% CO2 at 37° C. Growth medium was changed every other day.
# (§2) Small interfering RNAs to APE1 (APE1siRNA) and scrambled siRNA (SCsiRNA) controls were used to decrease APE1 protein expression in sensory neuronal cell cultures and as controls, respectively, as described previously (Vasko et al., 2005, Jiang et al., 2008a). On day 3 in culture, the growth media was replaced with 0.5 ml of Opti-MEM 1 media containing 100 nM of APE1siRNA (5′-[…]-3′ (SEQ ID NO:1)) or SCsiRNA (5′-[…]-3′(SEQ ID NO:2)); (Vasko et al., 2005)) and 10 μl of the transfecting reagent, Neuroporter. On the next day, 0.5 ml of the growth media without antibiotics was added to each well, and after an additional 24 hours the media containing siRNA was replaced with normal growth media.
# (§3) Lentiviral constructs containing (1) the CMV promoter, HA-tagged APE1, IRES, and enhanced green fluorescent protein (EGFP); or (2) CMV, IRES, and EGFP were developed. DNA sequencing confirmed the constructs in the pLenti6-R4R2-V5 plasmid containing WT-, C65-, or 226+177-APE1-IRES-EGFP. For lentiviral infections, DRG cells were cultured 5 days before 150 pfu/cell of the lentivirus was added to the media. Two days later, the virus was removed and the cells grown an additional 5 days in regular media.
# Tissues or cells were harvested, lysed in RIPA buffer (Santa Cruz Biotechnology; Santa Cruz, Calif., USA), sonicated, and cleared of cellular debris by centrifuging at 4000 RPM for 2 minutes. Protein was quantified using Lowry assay, and electrophoresed in a 12% SDS-polyacrylamide gel. After electrophoresis, proteins were transferred to a PVDF membrane, and blocked with Tris-buffered saline containing 0.1% Tween-20 (TBST) and 5% nonfat dry milk for 1 hour at room temperature while gently agitating. Mouse monoclonal antihuman Ape1 antibodies (1:1000), mouse monoclonal anti-phospho H2AX antibodies (1:1000), mouse monoclonal anti-vinculin antibody (1:1000), and anti-Hemagglutinin (HA) antibody were added to the blocking solution and incubated for 2 hours at room temperature while gently agitating. Antibody binding was detected following appropriate secondary antibody methods using chemiluminescence. The density of the bands was measured using Quantity One software from Bio-Rad (Hercules, Calif.) and data expressed as density normalized to vinculin.
# [2] = test system: neuronal cultures derived from DRG; experiment: CGRP release from DRG neuronal cultures (Example 1); conditions: for capsaicin-stimulated release of CGRP: 24 hours
# Description: as §1, §2, §3
# After neuronal cultures were treated with the appropriate drugs, the cultures were washed once with HEPES buffer consisting of (in mM) 25 HEPES, 135 NaCl, 3.5 KCl, 2.5 CaCl2, 1 MgCl2, 3.3 D-glucose, and 0.1% bovine serum albumin, pH 7.4 and maintained at 37° C. They were then incubated for successive 10-minute intervals with 0.4 ml of HEPES buffer alone (basal release), with buffer containing 30 nM capsaicin, then with buffer alone (to assess return to basal release). After each incubation, the buffer was removed and the amount of immunoreactive CGRP in each sample was measured using radioimmunoassay as previously described (Chen et al., 1996). After the release experiment, the cells in each well were in 0.4 ml of 0.1 M HCl10 minutes and an aliquot taken to measure total CGRP content in the cultures using radioimmunoassay. Total content (fmol/well) was calculated by adding the total amount released in all incubations to the amount measured in the cells. The release data is calculated as fmol released/well/10 minutes.
# [3] = test system: sensory neuronal cultures; experiment: phospho-H2AX immunoblotting in sensory neuronal cultures (Example 3); conditions: 10 μM cisplatin for 24 or 48 hours
# Description: Primary cultures of sensory neurons were harvested and maintained as previously described (Vasko et al., 2005). Briefly, adult male Sprague-Dawley rats (150-175 g; Harlan, Indianapolis, Ind.) were euthanized by CO2 asphyxiation and dorsal root ganglia (DRG) dissected from all spinal levels, transferred to into a collagenase solution (1 mg/ml), incubated for 1 hour at 37° C., then dissociated by mechanical agitation. Approximately 30,000 cells or 60,000 cells were plated into each well of 12-well or 6-well culture plates, respectively. All culture dishes were precoated with poly-D-lysine and laminin. Cells were maintained in F-12 media supplemented with 10% horse serum, 2 mM glutamine, 100 μg/ml Normocin™, 50 μg/ml penicillin, 50 μg/ml streptomycin, 50 μM 5-fluoro-2′-deoxyuridine (Invitrogen), 150 μM uridine, and 30 ng/ml of NGF in 3% CO2 at 37° C. Growth medium was changed every other day. Experiments were performed after cells were maintained in culture for 12-14 days.
# Immunoblotting was performed as previously described (Kelley et al., 2014). Briefly, cells were lysed in RIPA buffer (Santa Cruz Biotechnology; Santa Cruz, Calif., USA) and protein was quantified using the Lowey assay. Proteins were separated by electrophoresis on a 4-12% SDS-polyacrylamide gel. The gel was transferred to a PVDF membrane and incubated overnight at 4° C. in Tris-buffered saline containing 0.1% Tween-20 (TBST) and 5% nonfat dry milk while gently agitating. Mouse monoclonal antihuman Ape1 antibodies (1:500), mouse monoclonal anti-phospho H2AX antibodies (1:1000), or (3-Actin monoclonal antibody (1:1000) were added to the blocking solution and incubated overnight at room temperature while gently agitating. Antibody binding was detected following appropriate secondary antibody methods using chemiluminescence. The density of the bands was measured using QUALITYONE® software from Bio-Rad (Hercules, Calif.) and data expressed as density normalized to actin.
compound,measurement,setting,value
Cc1ccc2c(c1)C1(CCN(CCc3nc(-c4ccccc4)oc3C)CC1)OC(=O)N2 [RS 50493],pH2A.X expression relative to the expression elicited by MCP-1 alone,"[1]; 0.3 μg/ml MCP-1 24 hr, RS 50493 1 μM",8.5%
same,reduction of LPS-induced increase in pH2A.X expression,"[1]; 3.0 μg/ml LPS 24 hr, LPS-RS 2 μg/ml, RS 50493 1 μM, from 1 hour prior",92.5 % reduction
same,effect on MCP-1-induced augmentation of CGRP release,"[2]; 0.3 μg/ml MCP-1, RS 50493 1 μM",prevented
same,effect on LPS-induced decrease in CGRP release,"[2]; 3.0 μg/ml LPS, LPS-RS 2 μg/ml, RS 50493 1 μM",blocked the decrease in release induced by LPS
COc1cc(CNC(=O)CCCC/C=C/C(C)C)ccc1O [capsaicin],release of CGRP stimulated by capsaicin,"[2]; 30 nM capsaicin, 10-minute period, no inflammatory mediator",approximately 10 % of the total content
"N.N.[Cl][Pt][Cl] [cisplatin, reference compound]",levels of pH2AX,[3],significant increase in the levels of pH2AX
MCP-1: Recombinant rat CCL2/MCP-1 protein,levels of pH2A.X over time,"[1]; LPS 1 μg/ml, MCP-1 100 ng/ml",induced pH2A.X expression
same,onset of pH2A.X increase,"[1]; LPS 1 μg/ml, MCP-1 100 ng/ml",16 hours
same,peak of pH2A.X increase,"[1]; LPS 1 μg/ml, MCP-1 100 ng/ml",24 hours
same,pH2A.X expression,"[1]; SCsiRNA-treated cultures, 24 hours, LPS 3 μg/ml, MCP-1 0.3 μg/ml",enhanced expression of pH2A.X
same,CGRP release relative to the release in the absence of MCP-1,"[2]; 0.3 μg/ml MCP-1, 24 hours",142.8%
same,capsaicin-stimulated release of CGRP,[2]; 0.3 μg/ml,13.0±0.8 % of total content
same,capsaicin-stimulated release of CGRP,[2]; 1.0 μg/ml,15.0±1.0 % of total content
same,capsaicin-stimulated release of CGRP,[2]; 10.0 μg/ml,6.3±1.0 % of total content
same,release of CGRP stimulated by capsaicin,"[2]; APE1siRNA-treated cultures, MCP-1 0.3 μg/ml",caused a decrease in CGRP release
same,release of CGRP stimulated by capsaicin,"[2]; SCsiRNA-treated cultures, MCP-1 0.3 μg/ml",enhanced the release of CGRP
same,total content of CGRP compared with vehicle,[2]; data not shown,similar
